Measured values reported in patent US4613355A, “Antibiotic having herbicidal activity” (Satoshi Omura, priority 1983, dated 1986).
Structures can show the parent of a compound that is named as a salt.

Experiments:
Format in all cases: in vivo
[1] = test system: Arctium lappa; experiment: Foliage treatment (Example 8); parameters: key: 0 indicates no effect; 5 indicates complete kill; conditions: Plant No. 30 Arctium lappa, 14 days
Description: (§1) Aqueous solutions of Phosalacine (Na salt) at different concentrations were applied at a rate of 1500 liters per hectare to naturally occurring plants or plants which were cultured on plates as shown in the following Table at certain stages of growth. […]

[2] = test system: Artemisia princeps; experiment: Foliage treatment (Example 8); parameters: key: 0 indicates no effect; 5 indicates complete kill; conditions: Plant No. 1 Artemisia princeps
Description: as §1

[3] = test system: Brassica oleracea; experiment: Foliage treatment (Example 8); parameters: key: 0 indicates no effect; 5 indicates complete kill; conditions: Plant No. 28 Brassica oleracea
Description: as §1

[4] = test system: Cucumis sativus; experiment: Foliage treatment (Example 8); parameters: key: 0 indicates no effect; 5 indicates complete kill; conditions: Plant No. 33 Cucumis sativus
Description: as §1

[5] = test system: Glycine max; experiment: Foliage treatment (Example 8); parameters: key: 0 indicates no effect; 5 indicates complete kill; conditions: Plant No. 34 Glycine max
Description: as §1

[6] = test system: Miscanthus sinensis; experiment: Foliage treatment (Example 8); parameters: key: 0 indicates no effect; 5 indicates complete kill; conditions: Plant No. 5 Miscanthus sinensis
Description: as §1

[7] = test system: Castanea crenata; experiment: Foliage treatment of naturally growing weeds and brush (Example 9); parameters: key: 0 indicates no effect; 5 indicates complete kill; conditions: Plant No. 8 Castanea crenata, One month
Source text: (§2) Aqueous solutions of Phosalacine (Na salt) at different concentrations and 0.1% of octylphenylpolyoxy ethanol as surfactant were applied to the area where various weeds and brush were naturally growing at a rate of 1500 liter per hectare. One month after the foliage treatment, damage to weeds and brush was visually assessed on a scale of from 0 to 5 where 0 indicates no effect and 5 indicates complete kill as hereinbefore defined.

[8] = test system: Pteridium aquilinum; experiment: as above; parameters: key: 0 indicates no effect; 5 indicates complete kill; conditions: Plant No. 20 Pteridium aquilinum, One month
Source text: as §2

[9] = test system: Rubus palmatus; experiment: as above; parameters: key: 0 indicates no effect; 5 indicates complete kill; conditions: Plant No. 18 Rubus palmatus, One month
Source text: as §2

[10] = test system: Smilax china; experiment: as above; parameters: key: 0 indicates no effect; 5 indicates complete kill; conditions: Plant No. 17 Smilax china, One month
Source text: as §2

[11] = test system: Viburnum dilatatum; experiment: as above; parameters: key: 0 indicates no effect; 5 indicates complete kill; conditions: Plant No. 21 Viburnum dilatatum, One month
Source text: as §2

[12] = test system: Zanthoxylum piperitum; experiment: as above; parameters: key: 0 indicates no effect; 5 indicates complete kill; conditions: Plant No. 19 Zanthoxylum piperitum, One month
Source text: as §2

[13] = test system: various weeds and brush (overall evaluation); experiment: as above; parameters: key: 0 indicates no effect; 5 indicates complete kill; conditions: OE overall evaluation, One month
Source text: as §2

[14] = test system: Castanea crenata; experiment: Foliage treatment of woody plants (Example 10); parameters: key: 0 indicates no effect; 5 indicates complete kill; conditions: Plant No. 8 Castanea crenata
Source text: (§3) Aqueous solutions containing Phosalacine (Na salt) at different concentrations and 0.1% of octylphenylpolyoxy ethanol as surfactant were applied at a rate of 1500 liter per hectare to woody plants of about 60-70 cm in height. 7 and 14 days after the foliage treatment, damage to the plants was visually assessed on a scale of from 0 to 5 (cf. Example 7).

[15] = test system: Larix leptolepis; experiment: Foliage treatment of woody plants (Example 10); parameters: key: 0 indicates no effect; 5 indicates complete kill; conditions: Plant No. 23 Larix leptolepis
Source text: as §3

[16] = test system: Picea densiflora; experiment: Foliage treatment of woody plants (Example 10); parameters: key: 0 indicates no effect; 5 indicates complete kill; conditions: Plant No. 22 Picea densiflora
Source text: as §3

[17] = test system: Chamaecyparis obtusa; experiment: Foliage treatment of woody plants (Example 10); parameters: key to damage to the plants, scale 0 to 5: 0 indicates no effect; 5 indicates complete kill; conditions: CH Chamaecyparis obtusa
Source text: as §3

[18] = test system: Cryptomeria japonica; experiment: Foliage treatment of woody plants (Example 10); parameters: key to damage to the plants, scale 0 to 5: 0 indicates no effect; 5 indicates complete kill; conditions: CP Cryptomeria japonica
Source text: as §3

CC(C)C[C@H](NC(=O)[C@H](C)NC(=O)[C@@H](N)CCP(C)(=O)O)C(=O)O [Phosalacine (Na salt)]
damage to the plants, scale 0 to 5 ([1]; 0.05%): 4 | damage to the plants, scale 0 to 5 ([1]; 0.1%): 5 | damage to the plants, scale 0 to 5 ([2]; 0.05%, 7 days): 3 | damage to the plants, scale 0 to 5 ([2]; 0.05%, 14 days): 4 | damage to the plants, scale 0 to 5 ([2]; 0.1%, 7 days): 5 | damage to the plants, scale 0 to 5 ([2]; 0.1%, 14 days): 5 | damage to the plants, scale 0 to 5 ([3]; 0.05%, 7 days): 3 | damage to the plants, scale 0 to 5 ([3]; 0.05%, 14 days): 4 | damage to the plants, scale 0 to 5 ([3]; 0.1%, 7 days): 5 | damage to the plants, scale 0 to 5 ([3]; 0.1%, 14 days): 5 | damage to the plants, scale 0 to 5 ([4]; 0.05%, 7 days): 3 | damage to the plants, scale 0 to 5 ([4]; 0.05%, 14 days): 4 | damage to the plants, scale 0 to 5 ([4]; 0.1%, 7 days): 5 | damage to the plants, scale 0 to 5 ([4]; 0.1%, 14 days): 5 | damage to the plants, scale 0 to 5 ([5]; 0.05%, 7 days): 3 | damage to the plants, scale 0 to 5 ([5]; 0.05%, 14 days): 5 | damage to the plants, scale 0 to 5 ([5]; 0.1%, 7 days): 5 | damage to the plants, scale 0 to 5 ([5]; 0.1%, 14 days): 5 | damage to the plants, scale 0 to 5 ([6]; 0.05%, 7 days): 3 | damage to the plants, scale 0 to 5 ([6]; 0.05%, 14 days): 4 | damage to the plants, scale 0 to 5 ([6]; 0.1%, 7 days): 5 | damage to the plants, scale 0 to 5 ([6]; 0.1%, 14 days): 5 | damage to weeds and brush, scale 0 to 5 ([7]; 0.05%): 3 | damage to weeds and brush, scale 0 to 5 ([7]; 0.1%): 5 | damage to weeds and brush, scale 0 to 5 ([7]; 0.2%): 5 | damage to weeds and brush, scale 0 to 5 ([8]; 0.05%): 3 | damage to weeds and brush, scale 0 to 5 ([8]; 0.1%): 5 | damage to weeds and brush, scale 0 to 5 ([8]; 0.2%): 5 | damage to weeds and brush, scale 0 to 5 ([9]; 0.05%): 3 | damage to weeds and brush, scale 0 to 5 ([9]; 0.1%): 5 | damage to weeds and brush, scale 0 to 5 ([9]; 0.2%): 5 | damage to weeds and brush, scale 0 to 5 ([10]; 0.05%): 3 | damage to weeds and brush, scale 0 to 5 ([10]; 0.1%): 5 | damage to weeds and brush, scale 0 to 5 ([10]; 0.2%): 5 | damage to weeds and brush, scale 0 to 5 ([11]; 0.05%): 3 | damage to weeds and brush, scale 0 to 5 ([11]; 0.1%): 5 | damage to weeds and brush, scale 0 to 5 ([11]; 0.2%): 5 | damage to weeds and brush, scale 0 to 5 ([12]; 0.05%): 3 | damage to weeds and brush, scale 0 to 5 ([12]; 0.1%): 5 | damage to weeds and brush, scale 0 to 5 ([12]; 0.2%): 5 | damage to weeds and brush, scale 0 to 5 ([13]; 0.05%): 3 | damage to weeds and brush, scale 0 to 5 ([13]; 0.1%): 5 | damage to weeds and brush, scale 0 to 5 ([13]; 0.2%): 5 | damage to the plants, scale 0 to 5 ([14]; 0.125%, 7 days): 5 | damage to the plants, scale 0 to 5 ([14]; 0.125%, 14 days): 5 | damage to the plants, scale 0 to 5 ([14]; 0.25%, 7 days): 5 | damage to the plants, scale 0 to 5 ([14]; 0.25%, 14 days): 5 | damage to the plants, scale 0 to 5 ([14]; 0.5%, 7 days): 5 | damage to the plants, scale 0 to 5 ([14]; 0.5%, 14 days): 5 | damage to the plants, scale 0 to 5 ([15]; 0.125%, 7 days): 4 | damage to the plants, scale 0 to 5 ([15]; 0.125%, 14 days): 5 | damage to the plants, scale 0 to 5 ([15]; 0.25%, 7 days): 4 | damage to the plants, scale 0 to 5 ([15]; 0.25%, 14 days): 5 | damage to the plants, scale 0 to 5 ([15]; 0.5%, 7 days): 4 | damage to the plants, scale 0 to 5 ([15]; 0.5%, 14 days): 5 | damage to the plants, scale 0 to 5 ([16]; 0.125%, 7 days): 4 | damage to the plants, scale 0 to 5 ([16]; 0.125%, 14 days): 5 | damage to the plants, scale 0 to 5 ([16]; 0.25%, 7 days): 4 | damage to the plants, scale 0 to 5 ([16]; 0.25%, 14 days): 5 | damage to the plants, scale 0 to 5 ([16]; 0.5%, 7 days): 4 | damage to the plants, scale 0 to 5 ([16]; 0.5%, 14 days): 5 | damage to the plants, scale 0 to 5 ([17]; 0.125%, 7 days): 0 | damage to the plants, scale 0 to 5 ([17]; 0.125%, 14 days): 0 | damage to the plants, scale 0 to 5 ([17]; 0.25%, 7 days): 0 | damage to the plants, scale 0 to 5 ([17]; 0.25%, 14 days): 0 | damage to the plants, scale 0 to 5 ([17]; 0.5%, 7 days): 0 | damage to the plants, scale 0 to 5 ([17]; 0.5%, 14 days): 0 | damage to the plants, scale 0 to 5 ([18]; 0.125%, 7 days): 0 | damage to the plants, scale 0 to 5 ([18]; 0.125%, 14 days): 0 | damage to the plants, scale 0 to 5 ([18]; 0.25%, 7 days): 0 | damage to the plants, scale 0 to 5 ([18]; 0.25%, 14 days): 1 | damage to the plants, scale 0 to 5 ([18]; 0.5%, 7 days): 0 | damage to the plants, scale 0 to 5 ([18]; 0.5%, 14 days): 2
